Patent publication US20240415819A1, “MACROCYCLIC COMPOUNDS AS PROTEASOME SUBUNIT BETA TYPE-5 INHIBITORS” (Lead Discovery Center GmbH, priority 2021, published 2024)

Experiments:
[1] = target: T1, β5 subunit of the human constitutive proteasome (CPS) (Homo sapiens, UniProt P28074); assay: β5 inhibition assay, human constitutive proteasome (Suc-LLVY-AMC); type: biochemical; conditions: IC50 class, Suc-LLVY-AMC substrate
T1 construct: purchased Boston Biochem E-360
Method: The enzymatic activity of the β5 subunit of the human constitutive proteasome (CPS) is analyzed. In another assay, which differs from the assay of the human constitutive proteasome only in using the human immunoproteasome (IPS) the enzymatic activity of the β5 subunit of the human immunoproteasome (IPS) is analyzed. […] Inhibition is indicated as IC50 [nM] (“-”=not measured).

HT-29 cells = assay: CellTiter-Glo luminescent cell viability assay with HT-29 cells (72h incubation); type: cell-based, human; conditions: Homo sapiens, HT-29, HT29 cells, read-out: CTG HT29
How it was run: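 Viability read as CellTiter-Glo luminescence after 72 h compound exposure, with 10 μM staurosporine and DMSO as control wells. Seeding 400 cells per well, compound added 24 h post-plating; IC50 from curve fitting.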

hPMBC = assay: Chymotrypsin-like ProteasomeGlo assay in hPBMC; type: cell-based; conditions: Homo sapiens; read-out: Pglo hPBMC
How it was run: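 IC50 derived from luminescent chymotrypsin-like proteasome activity (Suc-LLVY-Glo substrate plus luciferin detection reagent). Measured after 105 min compound exposure at 37 °C, 5% CO2. Cells were human B cells purified from buffy-coat PBMC.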

| SMILES | IC50 [1] | IC50 (HT-29 cells) | IC50 (hPMBC) |
| --- | --- | --- | --- |
| CC(=O)N[C@H]1CCCC(=O)N(C)CCCCOc2ccc(C)c(c2)CNC(=O)[C@H](CCc2ccccc2)NC1=O [Compound 295, N-(1^4,7-dimethyl-8,13,16-trioxo-15-phenethyl-2-oxa-7,14,17-triaza-1(1,3)-benzenacyclooctadecaphane-12-yl)acetamide] | < 0.1 µM | < 0.1 µM | 0.1 to 0.5 µM |
| Cc1ccc2cc1CNC(=O)[C@H](CCc1ccccc1)NC(=O)[C@@H](NC(=O)Cc1nc(-c3ccncc3)n[nH]1)CC(=O)N1CCCC(CCO2)C1 (stereo partly drawn) [Compound 329, N-((9S,12S)-5^4-methyl-8,11,14-trioxo-9-phenethyl-4-oxa-7,10-diaza-1(3,1)-piperidina-5(1,3)-benzenacyclotetradecaphane-12-yl)-2-(3-(pyridin-4-yl)-1H-1,2,4-triazol-5-yl)acetamide] | < 0.1 µM | < 0.1 µM | 0.1 to 0.5 µM |
| COC(C(=O)N[C@H]1CC(=O)N2CCCC(CCOc3ccc(C)c(c3)CNC(=O)[C@H](CCc3ccccc3)NC1=O)C2)c1ccc(N)cc1 (stereo partly drawn) [Compound 326, 2-(4-aminophenyl)-2-methoxy-N-((9S,12S)-5^4-methyl-8,11,14-trioxo-9-phenethyl-4-oxa-7,10-diaza-1(3,1)-piperidina-5(1,3)-benzenacyclotetradecaphane-12-yl)acetamide] | < 0.1 µM | < 0.1 µM | < 0.1 µM |
| Cc1ccc2cc1CNC(=O)[C@H](CCc1ccccc1)NC(=O)[C@@H](NC(=O)OCc1ccccc1)CC(=O)N1CCCC3(CC(C3)O2)C1 [Compound 300] | 0.1 to 0.5 µM | 0.1 to 0.5 µM | 0.5 to 1 µM |
| Cc1ccc2cc1CNC(=O)[C@H](CCc1ccccc1)NC(=O)[C@@H](NC(=O)OCc1ccccc1)CCCC(=O)N1CCC(CCO2)C1 (stereo partly drawn) [Compound 352, benzyl ((9S, 12S)-5^4-methyl-8,11,16-trioxo-9-phenethyl-4-oxa-7,10-diaza-1(3,1)-pyrrolidina-5(1,3)-benzenacyclohexadecaphane-12-yl)carbamate] | < 0.1 µM | < 0.1 µM | 0.1 to 0.5 µM |
| Cc1ccc2cc1CNC(=O)[C@H](CCc1ccccc1)NC(=O)[C@@H](NC(=O)Cc1csc(N)n1)CC(=O)N1CCCC(CCO2)C1 (stereo partly drawn) [Compound 302, 2-(2-aminothiazol-4-yl)-N-((9S,12S)-5^4-methyl-8,11,14-trioxo-9-phenethyl-4-oxa-7,10-diaza-1(3,1)-piperidina-5(1,3)-benzenacyclotetradecaphane-12-yl)acetamide] | < 0.1 µM | < 0.1 µM | < 0.1 µM |
| CCOC(C(=O)N[C@H]1CC(=O)N2CCCC(CCOc3ccc(C)c(c3)CNC(=O)[C@H](CCc3ccccc3)NC1=O)C2)c1ccc(N)cc1 (stereo partly drawn) [Compound 345, 2-(4-aminophenyl)-2-ethoxy-N-((9S,12S)-5^4-methyl-8,11,14-trioxo-9-phenethyl-4-oxa-7,10-diaza-1(3,1)-piperidina-5(1,3)-benzenacyclotetradecaphane-12-yl)acetamide] | < 0.1 µM | < 0.1 µM | < 0.1 µM |
| Cc1ccc2cc1CNC(=O)C(CCc1ccncc1)NC(=O)[C@@H](NC(=O)OCc1ccccc1)CC(=O)N1CCCC(CCO2)C1 (stereo partly drawn) [Compound 336, benzyl ((12S)-5^4-methyl-8,11,14-trioxo-9-(2-(pyridin-4-yl)ethyl)-4-oxa-7,10-diaza-1(3,1)-piperidina-5(1,3)-benzenacyclotetradecaphane-12-yl)carbamate] | < 0.1 µM | < 0.1 µM | < 0.1 µM |
| Cc1ccc2cc1CNC(=O)[C@H](CCc1ccccc1)NC(=O)[C@@H](NC(=O)Cc1cnc(N)s1)CC(=O)N1CCCC(CCO2)C1 (stereo partly drawn) [Compound 311, 2-(2-aminothiazol-5-yl)-N-((9S,12S)-5^4-methyl-8,11,14-trioxo-9-phenethyl-4-oxa-7,10-diaza-1(3,1)-piperidina-5(1,3)-benzenacyclotetradecaphane-12-yl)acetamide] | < 0.1 µM | < 0.1 µM | < 0.1 µM |
| Cc1ccc2cc1CNC(=O)[C@H](CCc1ccccc1)NC(=O)[C@@H](NC(=O)OCc1ccccc1)CC(=O)N1CC(CCO2)CC2CCCCC21 (stereo partly drawn) [Compound 314, benzyl ((9S,12S)-5^4-methyl-8,11,14-trioxo-9-phenethyl-11,12,13,14,14a,15,16,17,18,18a-decahydro-4-oxa-7,10-diaza-1(3,1)-quinolina-5(1,3)-benzenacyclotetradecaphane-12-yl)carbamate] | < 0.1 µM | < 0.1 µM | < 0.1 µM |
| Cc1ccc2cc1CNC(=O)[C@H](CCc1ccccc1)NC(=O)[C@@H](NC(=O)Cc1nnc(N)s1)CC(=O)N1CCCC(CCO2)C1 (stereo partly drawn) [Compound 310, 2-(5-amino-1,3,4-thiadiazol-2-yl)-N-((9S,12S)-54-methyl-8,11,14-trioxo-9-phenethyl-4-oxa-7,10-diaza-1(3,1)-piperidina-5(1,3)-benzenacyclotetradecaphane-12-yl)acetamide] | < 0.1 µM | < 0.1 µM | < 0.1 µM |

The remaining lines, values ahead:

| IC50 [1] | IC50 (HT-29 cells) | IC50 (hPMBC) | SMILES |
| --- | --- | --- | --- |
| < 0.1 µM | < 0.1 µM | < 0.1 µM | Cc1ccc2cc1CNC(=O)C(c1cnn(C)c1)NC(=O)[C@@H](NC(=O)[C@@H](C)c1ccccc1)CC(=O)N1CCCC(CCO2)C1 (stereo partly drawn) [Compound 359, (2S)-N-((12S)-5^4-methyl-9-(1-methyl-1H-pyrazol-4-yl)-8,11,14-trioxo-4-oxa-7,10-diaza-1(3,1)-piperidina-5(1,3)-benzenacyclotetradecaphane-12-yl)-2-phenylpropanamide] |
| < 0.1 µM | < 0.1 µM | 0.1 to 0.5 µM | Cc1ccc2cc1CNC(=O)C(CCc1ccccc1)NC(=O)[C@@H](NC(=O)OCc1ccccc1)CC(=O)N1CCCC(CCO2)C1 (stereo partly drawn) [Compound 503, benzyl ((12S)-9-phenethyl-5^4-methyl-8,11,14-trioxo-4-oxa-7,10-diaza-1(3,1)-piperidina-5(1,3)-benzenacyclotetradecaphane-12-yl)carbamate] |
| < 0.1 µM | < 0.1 µM | < 0.1 µM | CC(=O)N[C@H]1CC(=O)N2CCCC(CCOc3ccc(C)c(c3)CNC(=O)C(c3cc(C)sn3)NC1=O)C2 (stereo partly drawn) [Compound 556, N-((12S)-5^4-methyl-9-(5-methylisothiazol-3-yl)-8,11,14-trioxo-4-oxa-7,10-diaza-1(3,1)-piperidina-5(1,3)-benzenacyclotetradecaphane-12-yl)acetamide] |
| < 0.1 µM | < 0.1 µM | < 0.1 µM | COC(=O)N(CC1NC(=O)[C@@H](NC(=O)OCc2ccccc2)CC(=O)N2CCCC(CCOc3ccc(C)c(c3)CNC1=O)C2)c1ccccc1 (stereo partly drawn) [Compound 513, methyl (((12R)-12-(((benzyloxy)carbonyl)amino)-5^4-methyl-8,11,14-trioxo-4-oxa-7,10-diaza-1(3,1)-piperidina-5(1,3)-benzenacyclotetradecaphane-9-yl)methyl)(phenyl)carbamate] |
| < 0.1 µM | 0.1 to 0.5 µM | 0.1 to 0.5 µM | Cc1ccc2cc1CNC(=O)C(CCc1ccc(S(=O)(=O)O)cc1)NC(=O)[C@@H](NC(=O)OCc1ccccc1)CC(=O)N1CCCC(CCO2)C1 (stereo partly drawn) [Compound 509, 4-(2-((12S)-12-(((benzyloxy)carbonyl)amino)-5^4-methyl-8,11,14-trioxo-4-oxa-7,10-diaza-1(3,1)-piperidina-5(1,3)-benzenacyclotetradecaphane-9-yl)ethyl)benzenesulfonic acid] |
| < 0.1 µM | 0.1 to 0.5 µM | 0.1 to 0.5 µM | CC(=O)N[C@H]1CC(=O)N2CCCC(CCOc3ccc(C)c(c3)CNC(=O)C(c3cnn(CCOCCOCCOCCN)c3)NC1=O)C2 (stereo partly drawn) [Compound 566, N-((12S)-9-(1-(2-(2-(2-(2-aminoethoxy)ethoxy)ethoxy)ethyl)-1H-pyrazol-4-yl)-5^4-methyl-8,11,14-trioxo-4-oxa-7,10-diaza-1(3,1)-piperidina-5(1,3)-benzenacyclotetradecaphane-12-yl)acetamide] |
| < 0.1 µM | < 0.1 µM | < 0.1 µM | Cc1ccc2cc1CNC(=O)C(CCc1cnccn1)NC(=O)[C@@H](NC(=O)Cc1ccc(N)cc1F)CC(=O)N1CCCC(CCO2)C1 (stereo partly drawn) [Compound 372, 2-(4-amino-2-fluorophenyl)-N-((9S,12S)-5^4-methyl-8,11,14-trioxo-9-(2-(pyrazin-2-yl)ethyl)-4-oxa-7,10-diaza-1(3,1)-piperidina-5(1,3)-benzenacyclotetradecaphane-12-yl) acetamide] |
| < 0.1 µM | 0.1 to 0.5 µM | < 0.1 µM | CC(=O)N[C@H]1CC(=O)N2CCCC(CCOc3ccc(C)c(c3)CNC(=O)C(c3cn[nH]c3)NC1=O)C2 (stereo partly drawn) [Compound 562, N-((12S)-5^4-methyl-8,11,14-trioxo-9-(1H-pyrazol-4-yl)-4-oxa-7,10-diaza-1(3,1)-piperidina-5(1,3)-benzenacyclotetradecaphane-12-yl)acetamide] |
| < 0.1 µM | < 0.1 µM | < 0.1 µM | CC(=O)N[C@H]1CC(=O)N2CCCC(CCOc3ccc(C)c(c3)CNC(=O)C(CCc3nccs3)NC1=O)C2 (stereo partly drawn) [Compound 563, N-((12S)-5^4-methyl-8,11,14-trioxo-9-(2-(thiazol-2-yl)ethyl)-4-oxa-7,10-diaza-1(3,1)-piperidina-5(1,3)-benzenacyclotetradecaphane-12-yl)acetamide] |
| 1 to 5 µM | 1 to 5 µM | < 0.1 µM | Cc1cc2cc(c1C)CNC(=O)C(c1cnn(C)c1)NC(=O)CCC(=O)N1CCCC(CCO2)C1 (stereo not drawn) [Compound 355, 5^4,5^5-dimethyl-9-(1-methyl-1H-pyrazol-4-yl)-4-oxa-7,10-diaza-1(3,1)-piperidina-5(1,3)-benzenacyclotetradecaphane-8,11,14-trione] |
